{"source": "patent US4563478A", "about": "“Method of tranquilizing” (priority 1981, dated 1986)", "key": {"EEG in Rabbits": {"test_system": "EEG in Rabbits", "format": "in vivo", "procedure": "At doses of 100 and 50 mg/kg i.v., electrical activity becomes evidently synchronous 10 minutes after administration, and lasts for about 3 hours. […] After 4 hours, behaviour and EEG become normal."}, "[1]": {"test_system": "Spinal Medulla of the Cat", "assay": "Effect on the spinal medulla of the cat", "format": "in vivo", "conditions": "3-30 mg/kg i.v."}, "[2]": {"test_system": "salmonella thyphimurium, 5 different strains", "assay": "Mutagenesis (Salmonella, 5 different strains)", "conditions": "1000-100-10 mcg/plate", "description": "Mutagenesis (salmonella thyphimurium, 5 different strains): 1000-100-10 mcg/plate: negative."}, "animals (Rat, Mouse)": {"test_system": "animals (Rat, Mouse)", "assay": "Acute toxicity, symptoms observed in the animals (rat, mouse)", "format": "in vivo", "procedure": "Observation period: 14 days\n(+) from 500 mg/kg upwards, the animals show sedation symptoms."}, "Schizosacch. pombe P1": {"test_system": "Schizosacch. pombe P1", "assay": "Generic mutation", "conditions": "1000-100-10 mcg/plate"}, "[3]": {"test_system": "Plasmatic Prolactin Levels (PRL)", "assay": "Effect of compound (V) administered intravenously to the rat on plasmatic prolactin levels (PRL)", "format": "in vivo", "description": "4. Effect of Compound (V) Administered Intravenously to the Rat, on the Plasmatic Prolactin Levels (PRL)"}, "Acute toxicity, rat": {"assay": "Acute toxicity, rat", "conditions": "in vivo, observation 14 days, read-out: DL50", "description": "(§1) |Observation period: 14 days"}, "[4]": {"test_system": "cGMP in the rat cerebellum", "assay": "Effect on the cGMP levels in the rat cerebellum", "format": "in vivo", "conditions": "i.v., 1 hour after administration, saline = 100", "procedure": "The cGMP is measured 1 hour after administration."}, "Sacch. cerevisiae D4": {"test_system": "Sacch. cerevisiae D4", "assay": "Genetic conversion", "conditions": "1000-100-10 mcg/plate"}, "[5]": {"assay": "Sub-acute toxicity, 4 weeks", "format": "in vivo", "conditions": "daily oral and intra-peritoneal 10, 20 and 40 mg/kg/day", "procedure": "After daily oral and intra-peritoneal administration of 10,20 and 40 mg/kg/day of compound (V) for 4 weeks, no effect is observed on mortality, body weight, alimentation, hematological or urinary data, autoptic examination, weight or histology of the organs."}, "Acute toxicity, mouse": {"assay": "Acute toxicity, mouse", "conditions": "in vivo, observation 14 days, read-out: DL50", "description": "as §1"}, "[6]": {"conditions": "orally or parenterally; cited from earlier work"}, "[7]": {"conditions": "line marked (+), route not given"}}}
{"smiles": "O=C(O)CCCNCCC(=O)O", "note": "[Compound (V), N-β-carboxyethyl-γ-aminobutyric acid]", "values": [{"measurement": "basal activity, cortical graph", "setting": "EEG in Rabbits; 100 and 50 mg/kg i.v.", "result": "replaced by a slow continuous activity prevalent on the cortical graph"}, {"measurement": "behaviour (sedation)", "setting": "EEG in Rabbits; 100 and 50 mg/kg i.v.", "result": "sedated, but responds to stimuli"}, {"measurement": "desynchronisation of cortical activity by vibro-stimulation and pain stimuli", "setting": "EEG in Rabbits; 100 and 50 mg/kg i.v.", "result": "do not desynchronise cortical activity"}, {"measurement": "duration of synchronous electrical activity", "setting": "EEG in Rabbits; 100 and 50 mg/kg i.v.", "result": "about 3 hours"}, {"measurement": "thalamus and hippocampus activity at 4-5 Hz", "setting": "EEG in Rabbits; 100 and 50 mg/kg i.v.", "result": "replaced by an irregular graph and many slow waves"}, {"measurement": "time after administration at which electrical activity becomes synchronous", "setting": "EEG in Rabbits; 100 and 50 mg/kg i.v.", "result": 10, "unit": "min"}, {"measurement": "time after which behaviour and EEG become normal", "setting": "EEG in Rabbits; 100 and 50 mg/kg i.v.", "result": 4, "unit": "h"}, {"measurement": "sedative activity", "setting": "EEG in Rabbits; conclusion from EEG in rabbits, i.v.", "result": "demonstrates sedative activity"}, {"measurement": "overcoming of the hematoencephalic barrier", "setting": "EEG in Rabbits; rabbit, in vivo, iv", "result": "overcomes the hematoencephalic barrier"}, {"measurement": "activity on the gamma-mononeuron", "setting": "[1]", "result": "dose-dependent reduction"}, {"measurement": "dorsal root potentials", "setting": "[1]", "result": "dose-dependent reduction"}, {"measurement": "mono and polysynaptic reflexes of the ventral root", "setting": "[1]", "result": "dose-dependent reduction"}, {"measurement": "Mutagenesis", "setting": "[2]", "result": "negative"}, {"measurement": "dose from which the animals show sedation symptoms", "setting": "animals (Rat, Mouse); in vivo, po, 20160 min", "result": "≥ 500", "unit": "mg/kg"}, {"measurement": "symptoms before death", "setting": "animals (Rat, Mouse); intra-peritoneal (++)", "result": "ataxia, lack of reaction to stimuli, and dyspnea"}, {"measurement": "Generic mutation", "setting": "Schizosacch. pombe P1", "result": "negative"}, {"measurement": "PRL levels", "setting": "[3]; 100 mg/kg i.v., 0 min", "result": 4, "unit": "ng/mL"}, {"measurement": "PRL levels", "setting": "[3]; 100 mg/kg i.v., 15 min", "result": "18 ± 5", "unit": "ng/mL"}, {"measurement": "PRL levels", "setting": "[3]; 100 mg/kg i.v., 30 min", "result": "4 ± 6", "unit": "ng/mL"}, {"measurement": "PRL levels", "setting": "[3]; 100 mg/kg i.v., 60 min", "result": 4, "unit": "ng/mL"}, {"measurement": "PRL levels", "setting": "[3]; 200 mg/kg i.v., 0 min", "result": 4, "unit": "ng/mL"}, {"measurement": "PRL levels", "setting": "[3]; 200 mg/kg i.v., 15 min", "result": "49 ± 10", "unit": "ng/mL"}, {"measurement": "PRL levels", "setting": "[3]; 200 mg/kg i.v., 30 min", "result": "5 ± 1", "unit": "ng/mL"}, {"measurement": "PRL levels", "setting": "[3]; 200 mg/kg i.v., 60 min", "result": 4, "unit": "ng/mL"}, {"measurement": "PRL levels", "setting": "[3]; 300 mg/kg i.v., 0 min", "result": 4, "unit": "ng/mL"}, {"measurement": "PRL levels", "setting": "[3]; 300 mg/kg i.v., 15 min", "result": "78 ± 5", "unit": "ng/mL"}, {"measurement": "PRL levels", "setting": "[3]; 300 mg/kg i.v., 30 min", "result": "21 ± 8", "unit": "ng/mL"}, {"measurement": "PRL levels", "setting": "[3]; 300 mg/kg i.v., 60 min", "result": 12, "unit": "ng/mL"}, {"measurement": "effect on the prolactin release", "setting": "[3]; intravenous, short intervals after administration", "result": "dose-dependent effect on the prolactin release"}, {"measurement": "LD50 at 336 h", "setting": "Acute toxicity, rat; ip, intra-peritoneal", "result": 877, "unit": "mg/kg"}, {"measurement": "LD50 at 336 h", "setting": "Acute toxicity, rat; [7]", "result": 1000, "unit": "mg/kg"}, {"measurement": "LD50 at 336 h", "setting": "Acute toxicity, rat; oral", "result": 1000, "unit": "mg/kg"}, {"measurement": "cGMP: Relative levels", "setting": "[4]; 1 mg/kg", "result": "95 ± 8"}, {"measurement": "cGMP: Relative levels", "setting": "[4]; 10 mg/kg", "result": "68 ± 4"}, {"measurement": "cGMP: Relative levels", "setting": "[4]; 30 mg/kg", "result": "60 ± 5"}, {"measurement": "cGMP: Relative levels", "setting": "[4]; 100 mg/kg", "result": "74 ± 6"}, {"measurement": "Genetic conversion", "setting": "Sacch. cerevisiae D4", "result": "doubtful"}, {"measurement": "mutagenic activity for the gene ADE 2", "setting": "Sacch. cerevisiae D4", "result": "not for the gene ADE 2"}, {"measurement": "mutagenic activity for the gene TPR 5", "setting": "Sacch. cerevisiae D4; only in the presence of a microsomial activator", "result": "a slight increase in mutagenic activity"}, {"measurement": "effect on alimentation", "setting": "[5]", "result": "no effect"}, {"measurement": "effect on autoptic examination", "setting": "[5]", "result": "no effect"}, {"measurement": "effect on body weight", "setting": "[5]", "result": "no effect"}, {"measurement": "effect on hematological or urinary data", "setting": "[5]", "result": "no effect"}, {"measurement": "effect on mortality", "setting": "[5]", "result": "no effect"}, {"measurement": "effect on weight or histology of the organs", "setting": "[5]", "result": "no effect"}, {"measurement": "LD50 at 336 h", "setting": "Acute toxicity, mouse; ip, intra-peritoneal", "result": 783, "unit": "mg/kg"}, {"measurement": "LD50 at 336 h", "setting": "Acute toxicity, mouse; [7]", "result": 1000, "unit": "mg/kg"}, {"measurement": "LD50 at 336 h", "setting": "Acute toxicity, mouse; oral", "result": 1000, "unit": "mg/kg"}]}
{"smiles": "NCCCC(=O)O", "note": "[GABA, gamma-amino butyric acid]", "values": [{"measurement": "crossing of the blood-brain barrier (GABA)", "setting": "[6]", "result": "does not cross the blood-brain barrier"}]}
